Measured values from the NIST ThermoML archive (doi:10.1016/j.jct.2017.10.014).

What was measured:
[1] = xn = mol fraction of the nth substance listed; conditions: 100 kPa, Liquid, Vibrating tube method
[2] = mn = molality of the nth substance listed, in mol/kg; conditions: 100 kPa, Liquid, Capillary tube (Ostwald / Ubbelohde) method

CC(C)(CO)[C@@H](O)C(=O)NCCCO [d-Panthenol] + O
Conditions	mass density, 293.15 K [kg/m3]	mass density, 298.15 K [kg/m3]	mass density, 303.15 K [kg/m3]	mass density, 308.15 K [kg/m3]	mass density, 313.15 K [kg/m3]	viscosity, 293.15 K [mPa·s]	viscosity, 298.15 K [mPa·s]	viscosity, 303.15 K [mPa·s]	viscosity, 308.15 K [mPa·s]	viscosity, 313.15 K [mPa·s]
[1], x1 = 0.0036	1004.95	1003.69	1002.18	1000.46	998.5	–	–	–	–	–
[1], x1 = 0.0054	1008.18	1006.88	1005.33	1003.56	1001.53	–	–	–	–	–
[1], x1 = 0.0071	1011.3	1009.95	1008.35	1006.55	1004.49	–	–	–	–	–
[1], x1 = 0.0089	1014.36	1012.97	1011.34	1009.5	1007.4	–	–	–	–	–
[1], x1 = 0.0107	1017.42	1016	1014.32	1012.45	1010.32	–	–	–	–	–
[1], x1 = 0.0124	1020.22	1018.76	1017.07	1015.14	1012.99	–	–	–	–	–
[1], x1 = 0.0142	1023.06	1021.57	1019.84	1017.89	1015.72	–	–	–	–	–
[1], x1 = 0.0248	1039.61	1037.84	1035.87	1033.67	1031.28	–	–	–	–	–
[1], x1 = 0.031	1049.02	1046.69	1044.71	1042.43	1039.83	–	–	–	–	–
[1], x1 = 0.0376	1055.92	1053.81	1051.55	1049.07	1046.45	–	–	–	–	–
[1], x1 = 0.0501	1068.98	1066.6	1064.45	1062.19	1059.96	–	–	–	–	–
[1], x1 = 0.0996	1102.82	1099.84	1096.7	1093.45	1090.55	–	–	–	–	–
[1], x1 = 0.1997	1134.36	1130.9	1127.26	1123.64	1119.93	–	–	–	–	–
[1], x1 = 0.2495	1141.94	1138.2	1134.68	1130.9	1127.21	–	–	–	–	–
[1], x1 = 0.2871	1146.56	1142.9	1139.2	1135.41	1131.52	–	–	–	–	–
[1], x1 = 0.342	1151.05	1147.23	1143.4	1139.69	1135.87	–	–	–	–	–
[1], x1 = 0.4007	1154.55	1150.87	1146.9	1143.02	1139.25	–	–	–	–	–
[1], x1 = 0.4958	1158.52	1154.87	1151.08	1147.04	1143.29	–	–	–	–	–
[1], x1 = 0.5944	1160.64	1157.16	1153.51	1149.72	1145.77	–	–	–	–	–
[1], x1 = 0.708	1162.75	1159.25	1155.76	1152.16	1148.24	–	–	–	–	–
[1], x1 = 0.8067	1163.58	1160.22	1156.74	1153.27	1149.57	–	–	–	–	–
[1], x1 = 0.8753	1164.26	1160.86	1157.46	1153.96	1150.3	–	–	–	–	–
[1], x1 = 1	1165.18	1161.68	1158.27	1154.96	1151.46	–	–	–	–	–
[2], m1 = 0.01	–	–	–	–	–	1.009	0.896	0.803	0.724	0.657
[2], m1 = 0.05	–	–	–	–	–	1.039	0.923	0.826	0.744	0.675
[2], m1 = 0.1001	–	–	–	–	–	1.078	0.957	0.855	0.769	0.697
[2], m1 = 0.1989	–	–	–	–	–	1.159	1.027	0.917	0.822	0.743
[2], m1 = 0.3002	–	–	–	–	–	1.246	1.1	0.98	0.877	0.791
[2], m1 = 0.4006	–	–	–	–	–	1.334	1.173	1.045	0.932	0.839
[2], m1 = 0.4997	–	–	–	–	–	1.421	1.253	1.105	0.99	0.887
